Results taken from patent US5798381A, “Biologically active bistramides, process for their production and their applications in therapy” (Institut Francais de Recherche Scientifique pour le …, priority 1993, dated 1998).
In brackets after ≈: the same amount, converted by molar mass.

What was measured:
P388/dox (p388r) = experiment: Cytotoxicity, 50% inhibition of cell growth, P388/dox (resistant to doxorubicin); format: cell-based; conditions: Mus musculus
Description: (§1) The cytoxicity results are recorded hereafter as the IC50 in μg/ml (concentration corresponding to a 50% inhibition of cell growth) on 6 tumoural lines namely KB, P388, P388/dox (resistant to doxorubicin), B16 and H429 and NSCLC-N6, which are human cells of non-small cell bronchopulmonary carcinoma type.
(§2) The determinations were carried out according to the protocol given in Cancer Chemother. Pharmacol. (1991) 28:283-292 by Roussakis et al.

HT 29 = experiment: Cytotoxicity, 50% inhibition of cell growth, HT 29; format: cell-based; conditions: Homo sapiens; HT 29; read-out: IC50 (50% inhibition of cell growth)
Description: as §1, §2

NSCLC.N6-L16 = experiment: Cytotoxicity, 50% inhibition of cell growth, NSCLC-N6; format: cell-based; conditions: Homo sapiens; NSCLC.N6-L16; read-out: IC50 (50% inhibition of cell growth)
Description: as §1, §2

L.(L) donovani = experiment: Anti-leishmanial activity in vitro; format: cell-based; conditions: 500 μg/ml
[1] = system: Plasmodium vinckei petteri; experiment: PETERS test (4-day anti-malarial test in mice); format: in vivo, Plasmodium vinckei petteri in SWISS female white mice; conditions: 15 mg/kg/day, 4 days, sub-cutaneous; for percentage inhibition of parasitemia: D4
Description: The animals used are SWISS (IFFA CREDO) female white mice weighing approximately 30 grams. Five mice are distributed per batch.
The species Plasmodium vinckei petteri used comes from the strain 279 BY (see article by Cambie G et al. in CR.Acad.Sci.PARIS 310, series III, 183-188). This plasmodia carries out a schizogonic cycle in 24 hours in a synchronous fashion. Using the freezing-thawing technique for infected blood, only the merozoite stage resists, the other forms being destroyed.
Observation of blood parasites takes place on stained smears carried out by taking a drop of blood from the tail. The smears are then stained with May-Grumwald-Giesma. Calculation of the parasitemia (number of parasites per 100 red blood corpuscles) is carried out on smears.
In these trials bistramide D is used in sterile physiological water containing 5% DMSO.
The product is injected by sub-cutaneous route in the thigh.
In order to verify the activity of the compound studied, the PETERS test is used which constitutes the reference for the screening of molecules with anti-malarial activity. (PETERS W. 1980. Chemotherapy and Drug resistance in Malaria, vol II, Academic Press).
After treatment for 4 days, the percentage of red blood corpuscles parasitized is compared on thin smears between the control batch and the treated batch. In this way a percentage inhibition is established. […]
a) injection of 10^7 of parasitized red blood corpuscles by I.P. route (D0) b) injection of Bistramide D at 15 mg/kg/day, for 4 days by sub-cutaneous route (D0, D1. D2, D3) c) checking the parasitemia on smears on D4

[2] = system: Plasmodium vinckei petteri; experiment: Study of the parasitic stage susceptible to bistramides; format: in vivo, Plasmodium vinckei petteri in SWISS female white mice; conditions: for patent period: time necessary for the parasitemia to reach 1%: 15 mg/kg, control 5 D
Description: In order to appreciate the parasitic stage or stages the most susceptible to the action of the bistramides of the invention, the effect of these bistramides was studied on each parasitic stage predominant during the cell cycle for a given species of Plasmodium.
The results given hereafter concern the effect of bistramide B on the parasitic stages of Plasmodium vinckei petteri.
After infestation of the mice, five batches of five mice are constituted. Each batch is treated with a dose of 15 mg/kg of bistramide D at the moment when one of the stages predominates.
In addition, the following batches are prepared: one control batch, one batch of merozoites, one ring batch, one batch of young trophozoites, one batch of middle trophozoites and one batch of old trophozoites.
The following are evaluated: the retardation of parasitemia or the patent period as the time in days necessary for the parasitemia to reach 1%.

[3] = system: Plasmodium vinckei petteri; experiment: Flow cytometry study of parasitized murine red blood corpuscles; conditions: G1 phase, maturation stage
Text: The consequence of this is to halt the proliferation at the middle and old trophozoite stage.

[4] = system: Plasmodium vinckei petteri; experiment: Comparison of monodose and multidose therapeutic schema; format: in vivo, Plasmodium vinckei petteri in SWISS female white mice
Description: The object is to monitor the parasitemia on a daily basis and to evaluate the inhibition of the parasitemia according to the therapeutic schema adopted for the treatment. The following are shown: the morphological modifications of the parasite by the parasitic formula, calculation of the parasitic formula is also carried out on smears and allows the evaluation of each stage:ring, young trophozoite, middle trophozoite, old trophozite for 100 red blood corpuscles.
a) after infestation, three batches of five mice are constituted, namely
a so-called monodose batch, for which a single injection of bistramide D (15 mg/kg) is given to the mouse on D0
a so-called multidose batch, where the injection of bistramide D is carried out by administering five doses on D0, D1, D2, D3, D4 respectively (total dose 15 mg/kg)
b) the preparation and reading of the smears is carried out every day for 21 days.
The percentage of parasitemia and the percentage inhibition of the development of the parasite is determined for each batch.

## C/C=C/C(O)CC1CCC(C)C(CC(=O)NCC(O)C(C)C(=O)NCCCC2OC3(CCCC(CCC(C)/C=C(\C)C(C)O)O3)CCC2C)O1 (stereo not shown) [Bistramide D]
P388/dox (p388r)
  IC50: 5.82 µg/mL (≈ 8.23 µM)
HT 29
  IC50: 2.76 µg/mL (≈ 3.9 µM)
NSCLC.N6-L16
  IC50: 3.43 µg/mL (≈ 4.85 µM)
L.(L) donovani
  anti-leishmanial activity: has an anti-leishmanial activity in vitro
[1]; trial A
  percentage inhibition of parasitemia: 85%
[1]; trial A, controls 4%
  parasitemia, treated batch on D4: 0.64%
[1]; trial B
  percentage inhibition of parasitemia: 87%
[1]; trial B, controls 4%
  parasitemia, treated batch on D4: 0.50%
[1]; trial C
  percentage inhibition of parasitemia: 81%
[1]; trial C, controls 1.2%
  parasitemia, treated batch on D4: 0.23%
[2]; KRUSKAL-WALLIS unilateral test, middle and old trophozoite
  stage selectivity / significance versus control batch: selective activity
[2]; merozoite batch
  patent period: time necessary for the parasitemia to reach 1%: 5 D
[2]; middle trophozoite batch
  patent period: time necessary for the parasitemia to reach 1%: 6.25 D
[2]; old trophozoite batch
  patent period: time necessary for the parasitemia to reach 1%: 6.2 D
[2]; ring batch
  patent period: time necessary for the parasitemia to reach 1%: 5.4 D
[2]; young trophozoite batch
  patent period: time necessary for the parasitemia to reach 1%: 5.6 D
[3]
  blocking of the parasite / of parasitic proliferation: partial blocking of the parasite at its maturation stage
[4]; Monodose (15 mg/kg on D0), D3
  percentage inhibition of the development of the parasite: 51.5%
[4]; Monodose (15 mg/kg on D0), D3, controls 0.33
  parasitemia: 0.16%
[4]; Monodose (15 mg/kg on D0), D4
  percentage inhibition of the development of the parasite: 33.3%
[4]; Monodose (15 mg/kg on D0), D4, controls 1.2
  parasitemia: 0.80%
[4]; Monodose (15 mg/kg on D0), D5
  percentage inhibition of the development of the parasite: 36.3%
[4]; Monodose (15 mg/kg on D0), D5, controls 5.5
  parasitemia: 3.5%
[4]; Monodose (15 mg/kg on D0), D7
  percentage inhibition of the development of the parasite: 0%
[4]; Monodose (15 mg/kg on D0), D7, controls 50
  parasitemia: 64%
[4]; Monodose (15 mg/kg on D0), D8
  percentage inhibition of the development of the parasite: 16.4%
[4]; Monodose (15 mg/kg on D0), D8, controls 67
  parasitemia: 56%
[4]; Monodose (15 mg/kg on D0), D9
  percentage inhibition of the development of the parasite: 12.5%
[4]; Monodose (15 mg/kg on D0), D9, controls 48
  parasitemia: 42%
[4]; Monodose (15 mg/kg on D0), D10
  percentage inhibition of the development of the parasite: 0%
[4]; Monodose (15 mg/kg on D0), D10, controls 1
  parasitemia: 1%
[4]; Monodose, D5, control 3%
  parasitic formula, old trophozoite (OT): 9%
[4]; Monodose, D5, control 7%
  parasitic formula, middle trophozoite (MT): 14%
[4]; Monodose, D5, control 17.5%
  parasitic formula, young trophozoite (YT): 37%
[4]; Monodose, D5, control 72.5%
  parasitic formula, ring stage (R): 40%
[4]; Monodose, D7, control 10%
  parasitic formula, old trophozoite (OT): 6%
[4]; Monodose, D7, control 15%
  parasitic formula, middle trophozoite (MT): 14%
[4]; Monodose, D7, control 17%
  parasitic formula, young trophozoite (YT): 31%
[4]; Monodose, D7, control 58%
  parasitic formula, ring stage (R): 47%
[4]; Multidose, D5, control 3%
  parasitic formula, old trophozoite (OT): 7%
[4]; Multidose, D5, control 7%
  parasitic formula, middle trophozoite (MT): 40%
[4]; Multidose, D5, control 17.5%
  parasitic formula, young trophozoite (YT): 28%
[4]; Multidose, D5, control 72.5%
  parasitic formula, ring stage (R): 25%
[4]; Multidose, D7, control 10%
  parasitic formula, old trophozoite (OT): 93%
[4]; Multidose, D7, control 15%
  parasitic formula, middle trophozoite (MT): 0%
[4]; Multidose, D7, control 17%
  parasitic formula, young trophozoite (YT): 0%
[4]; Multidose, D7, control 58%
  parasitic formula, ring stage (R): 7%
[4]; Multidoses (D0-D4, total 15 mg/kg), D3
  percentage inhibition of the development of the parasite: 63.6%
[4]; Multidoses (D0-D4, total 15 mg/kg), D3, controls 0.33
  parasitemia: 0.12%
[4]; Multidoses (D0-D4, total 15 mg/kg), D4
  percentage inhibition of the development of the parasite: 83.3%
[4]; Multidoses (D0-D4, total 15 mg/kg), D4, controls 1.2
  parasitemia: 0.2%
[4]; Multidoses (D0-D4, total 15 mg/kg), D5
  percentage inhibition of the development of the parasite: 70.9%
[4]; Multidoses (D0-D4, total 15 mg/kg), D5, controls 5.5
  parasitemia: 1.6%
[4]; Multidoses (D0-D4, total 15 mg/kg), D7
  percentage inhibition of the development of the parasite: 85.2%
[4]; Multidoses (D0-D4, total 15 mg/kg), D7, controls 50
  parasitemia: 7.4%
[4]; Multidoses (D0-D4, total 15 mg/kg), D8
  percentage inhibition of the development of the parasite: 0%
[4]; Multidoses (D0-D4, total 15 mg/kg), D8, controls 67
  parasitemia: 74%
[4]; Multidoses (D0-D4, total 15 mg/kg), D9
  percentage inhibition of the development of the parasite: 0%
[4]; Multidoses (D0-D4, total 15 mg/kg), D9, controls 48
  parasitemia: 67%
[4]; Multidoses (D0-D4, total 15 mg/kg), D10
  percentage inhibition of the development of the parasite: 0%
[4]; Multidoses (D0-D4, total 15 mg/kg), D10, controls 1
  parasitemia: 30%
[4]; after last injection on D4, multidose batch
  duration of the action: about 3 days
[4]; from D8
  effect on Plasmodium from D8: apparently being no longer effected
[4]; monodose batch, D4
  parasitemia of monodose batch versus control batch: no difference is observed
